According to patent US7842279B2, “F-18 peptides for pre targeted positron emission tomography imaging” (Immunomedics, Inc., priority 2005, dated 2010):

Test system: LS174T human colon adenocarcinoma
Test: PET imaging of human colon cancer tissue in nude mice
Type: in vivo
Settings: female athymic nu/nu mice, s.c. LS174T xenograft, 20 μCi i.v.
Method: A humanized MN-14 IgG antibody is prepared as described in U.S. Pat. No. 6,676,924. ^18F-labeled bisulfite addition complex is prepared as described in Example 8 and is linked to the humanized MN-14 IgG by reductive amination with sodium cyanoborohydride using standard techniques (see, e.g., Gray, 1978, Meth. Enzymol. 50:155-160.). Alternatively, an antibody or antibody fragment is directly labeled with [^18F]Fluorobenzaldehyde in the presence of hydroxylamine, thiosemicarbazide or hydrazine. Gel-permeation column chromatography is used to separated the 4-[^18F]Fluorobenzaldehyde/hMN-14 immunoconjugate from unconjugated 4-[^18F]Fluorobenzaldehyde bisulfite addition complex. The 4-[^18F]Fluorobenzaldehyde/hMN-14 immunoconjugate is used to localize human colon cancer tissue in nude mice. At 4-5 weeks female athymic mice (nu/nu, Harlan, Indianapolis, Ind.) are injected s.c. with 0.2 ml of a 10% suspension of LS174T human colon adenocarcinoma prepared from a xenograft serially propagated in an athymic mouse (Sharkey et al., Cancer Res., 50: 828-34 (1990)). After waiting 2 weeks for tumor development, the mice are injected i.v. with 20 μCi of 4-[^18F]Fluorobenzaldehyde/hMN-14 immunoconjugate. Tumor tissue is imaged by PET imaging, using standard ^18F detection methods.

Substance: 4-[^18F]Fluorobenzaldehyde/hMN-14 immunoconjugate
- tumor detection by PET imaging (F-18 distribution): detected as hot spots of F-18 distribution against a low-level background of F-18
